Tests used:
[1] = human, in vivo
Experimental: The subjects were randomized 24 h in advance in one of the two following groups. Group A: at least 10 h after fasting, oral flumatinib administration of 400 mg (2 tablets, day 1, first dose); the washout period was 14 days, half an hour after high-fat diet (timed from the start of diet) oral flumatinib administration of 400 mg (2 tablets, day 15,second dose). Subjects in group B followed the opposite administration sequence from those in group A. In groups A and B, the high-fat diet contained 800 ~ 1000Kcal (about 50% from fat) (meal composition is detailed Table 1).
Blood samples for pharmacokinetic (PK) evaluation were collected at 0 h before the initiation of dosing (pre-dose), and at 0.5, 1, 1.5, 2, 2.5, 3, 4, 5, 6, 8, 10, 12, 24, 48, 72, and 96 h after dosing. Blood samples were centrifuged at 2000g for 10 min at 4 ℃. Centrifugation was completed within 60 min after sample collection. The plasma was stored at − 70 °C for further analysis. Plasma concentrations of flumatinib and its main metabolites (M1 and M3) were determined using liquid chromatography-mass spectrometry (LC–MS/MS) [20].
Phoenix WinNonlin Version 7.0 (Pharsight Corporation, Sunnyvale, CA, USA) software was used to calculate the pharmacokinetic parameters (Tmax, Cmax, AUC0–t, AUC0–∞, t1/2, V/F, CL/F) of flumatinib and its main metabolites using a non-compartmental method (NCA module). Linear Up Log Down trapezoidal method was used for AUC calculation. The BE module of WinNonLin was used to analyze AUC0–t, AUC0–∞, and Cmax of flumatinib in fed and fasting states after logarithmic conversion. The treatment group (fasting, high-fat diet), the treatment sequence (A, B), and treatment phase were fixed effects in the model, and the subjects nested in the sequence were random effects. The adjusted mean difference (fasting/high-fat diet) and its 90% confidence interval estimated by the model, were taken as the negative number to obtain the corresponding PK parameter geometric mean ratio (postprandial/fasting), to estimate its 90% confidence interval, and to evaluate the effect of a high-fat diet on the pharmacokinetics of flumatinib.

[2] = in vivo; cited from earlier work
[3] = set-up: method as in PMID 26096139; conditions: healthy subjects; cited from earlier work
[4] = set-up: method as in PMID 18024884; conditions: cited from earlier work
[5] = set-up: method as in PMID 25511575; conditions: healthy subjects; cited from earlier work

**Q.** For `Cc1ncc(NC(=O)c2ccc(CN3CCNCC3)c(C(F)(F)F)c2)cc1Nc1nccc(-c2cccnc2)n1` [M1, N-desmethyl flumatinib], which AUC0–t [1] is on record?
**A.** 231 ± 101 ng·h/mL

**Q.** And the Cmax [1]?
**A.** 54.7 ± 25.5 ng/mL

**Q.** And the “Increase of AUC0–t after high-fat diet over fasted state” value ([1]; po, 400 mg)?
**A.** 1.6 fold

**Q.** What about the “Increase of AUC0–∞ after high-fat diet over fasted state” value ([1]; po, 400 mg) of the same compound?
**A.** 1.6 fold

**Q.** What about the “Increase of Cmax after high-fat diet over fasted state” value ([1]; po, 400 mg) of the same compound?
**A.** 1.9 fold

**Q.** And the “Metabolite in plasma relative to the parent drug in plasma” value [2]?
**A.** approximately 10%

**Q.** Which “Increase in Cmax after a high-fat diet compared to fasting” value [3] does the source give for `N#Cc1ccnc(N2C(=O)CC[C@H]2C(=O)N(c2cncc(F)c2)[C@H](C(=O)NC2CC(F)(F)C2)c2ccccc2Cl)c1` [ivosidenib] here?
**A.** 98%

**Q.** With `CS(=O)(=O)CCNCc1ccc(-c2ccc3ncnc(Nc4ccc(OCc5cccc(F)c5)c(Cl)c4)c3c2)o1` [lapatinib] as the compound, how does the “Increase in bioavailability after high-fat diet” value [4] read?
**A.** 325%

**Q.** What about the “Increase in bioavailability after low-fat diet” value [4] of the same compound?
**A.** 167%

**Q.** For `Cc1cn(-c2cc(NC(=O)c3ccc(C)c(Nc4nccc(-c5cccnc5)n4)c3)cc(C(F)(F)F)c2)cn1` [nilotinib], which “AUC higher when taken with food than fasting” value [5] is on record?
**A.** 82%

**Q.** What about the “Cmax higher when taken with food than fasting” value [5] of the same compound?
**A.** 112%
